Results as given in patent US12139520B2 (priority 2020, dated 2024).
Numbered stars: 1 amine (or outer) side, 2 acyl side, 3 side chain; on linkers, the order of the positions; unused ones are H or OH. Bridge positions count the residues as written; N and C are the ends. Square brackets hold non-standard residues; d marks the D form. Peptide text beside a SMILES is read from it. * marks the point of attachment. C20 diacid = O=C(O)CCCCCCCCCCCCCCCCCCC(=O)*; γGlu = O=C(O)[C@H](CCC(=O)[*:2])N[*:1]; Hyp = O=C(O)[C@@H]1C[C@@H](O)CN1

Biological target: T1, hAMY3 receptor (Homo sapiens, UniProt O60896+P30988)
T1 sequence (P30988 25-474): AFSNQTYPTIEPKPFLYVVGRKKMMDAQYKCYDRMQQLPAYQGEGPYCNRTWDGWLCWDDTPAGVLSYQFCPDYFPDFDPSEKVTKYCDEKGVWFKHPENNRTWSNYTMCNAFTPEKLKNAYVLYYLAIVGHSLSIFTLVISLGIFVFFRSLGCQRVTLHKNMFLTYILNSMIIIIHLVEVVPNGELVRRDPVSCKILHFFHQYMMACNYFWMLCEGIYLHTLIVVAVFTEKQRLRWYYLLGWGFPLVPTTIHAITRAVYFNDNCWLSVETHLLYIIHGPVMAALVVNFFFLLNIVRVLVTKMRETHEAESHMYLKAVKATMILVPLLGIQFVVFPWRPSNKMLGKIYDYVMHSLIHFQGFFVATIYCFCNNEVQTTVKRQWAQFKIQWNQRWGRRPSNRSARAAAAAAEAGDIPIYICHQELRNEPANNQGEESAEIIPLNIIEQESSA
T1 sequence (O60896 24-148 partner): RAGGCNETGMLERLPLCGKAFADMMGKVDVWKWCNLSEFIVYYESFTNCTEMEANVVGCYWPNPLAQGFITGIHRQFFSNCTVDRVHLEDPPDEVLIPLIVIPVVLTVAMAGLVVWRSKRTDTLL
Assay: cAMP assay for in vitro receptor activation, hAMY3-R
Type: cell-based
Conditions: cAMP assay, hAMY3 receptor; read-out: hAMY3R EC50
Experimental: General Protocols for cAMP Assays for Measuring In Vitro Receptor Activation
Cells stably overexpressing the hAMY3 receptor were obtained from Ogeda (now Astellas Pharma), sub-cloned and a monoclonal cell-line with an appropriate assay-window was expanded, aliquoted and frozen.
An aliquot was thawed and plated in DPBS with 0.05% casein and 0.5 mM IBMX as 2000 cells/well in a 384-well format. The cells were then immediately stimulated for 30 min at room temperature with graded doses of test compound using human amylin (Bachem, cat no. H-7905) as a positive control. cAMP accumulation was measured using a Cisbio assay for Gs coupled receptors (cat. no. 62AM4PEC), where the assay reagents were added as per the manufacturer's instructions and time-resolved fluorescence energy transfer recorded after one hour.

EC50	SMILES
0.006 nM	CC[C@H](C)[C@H](NC(=O)[C@H](CCC(N)=O)NC(=O)[C@H](Cc1c[nH]cn1)NC(=O)[C@H](C)NC(=O)[C@H](CC(C)C)NC(=O)[C@H](CCCNC(=N)N)NC(=O)[C@H](CCC(N)=O)NC(=O)[C@@H](NC(=O)[C@@H](NC(=O)[C@@H]1CSSC[C@H](NC(=O)[C@@H](N)CCCCN)C(=O)N[C@@H](CC(N)=O)C(=O)N[C@@H](Cc2ccccc2)C(=O)N[C@@H](C)C(=O)N[C@@H]([C@@H](C)O)C(=O)N1)[C@@H](C)O)C(C)C)C(=O)N[C@@H](Cc1ccc(O)cc1)C(=O)N[C@@H](CCC(N)=O)C(=O)N[C@@H](Cc1ccccc1)C(=O)N[C@H](C(=O)N[C@@H](CC(=O)O)C(=O)N[C@@H](CCCCN)C(=O)N[C@@H](CC(=O)O)C(=O)N[C@@H](CCCCN)C(=O)N[C@@H](CC(=O)O)C(=O)N[C@@H](CC(N)=O)C(=O)N[C@H](C(=O)N[C@@H](C)C(=O)N1CCC[C@H]1C(=O)N[C@@H](CCCNC(=N)N)C(=O)N[C@H](C(=O)N[C@@H](CCCCN)C(=O)N[C@H](C(=O)NCC(=O)N[C@@H](CO)C(=O)N[C@@H](CC(N)=O)C(=O)NCC(=O)N[C@@H](Cc1ccc(O)cc1)C(N)=O)C(C)C)[C@@H](C)O)C(C)C)[C@@H](C)O [compound 361] (H-KCNFATCTVQRLAHQIYQFTDKDKDNVAPRTKVGSNGY-NH2; disulfide 2-7; N-terminus assumed)
0.029 nM	CC[C@H](C)[C@H](NC(=O)[C@H](CC(N)=O)NC(=O)[C@@H](NC(=O)[C@H](CCCNC(=N)N)NC(=O)[C@@H]1CCCN1C(=O)[C@H](C)NC(=O)[C@@H](NC(=O)[C@H](CC(N)=O)NC(=O)[C@H](CC(=O)O)NC(=O)[C@H](CCCCN)NC(=O)[C@H](CC(=O)O)NC(=O)[C@H](CCCCN)NC(=O)[C@H](CC(=O)O)NC(=O)[C@@H](NC(=O)[C@H](Cc1ccccc1)NC(=O)[C@H](CCC(N)=O)NC(=O)[C@H](Cc1ccc(O)cc1)NC(=O)[C@@H](NC(=O)[C@H](CCC(N)=O)NC(=O)[C@H](Cc1c[nH]cn1)NC(=O)[C@H](C)NC(=O)[C@H](CC(C)C)NC(=O)[C@H](CCCNC(=N)N)NC(=O)[C@H](CCC(N)=O)NC(=O)[C@@H](NC(=O)[C@@H](NC(=O)[C@@H]1CSSC[C@H](NC(=O)CN)C(=O)N[C@@H](CCCNC(=N)N)C(=O)N[C@@H](Cc2ccccc2)C(=O)NCC(=O)N[C@@H]([C@@H](C)O)C(=O)N1)[C@@H](C)O)C(C)C)[C@@H](C)CC)[C@@H](C)O)C(C)C)[C@@H](C)O)C(=O)NCC(=O)N1CCC[C@H]1C(=O)N[C@@H](CCC(N)=O)C(=O)NCC(=O)N[C@@H](Cc1ccc(O)cc1)C(N)=O [compound 379] (H-GCRFGTCTVQRLAHQIYQFTDKDKDNVAPRTNIGPQGY-NH2; disulfide 2-7)

The remaining lines, values behind:

SMILES	EC50
CC(C)C[C@H](NC(=O)[C@H](CCCNC(=N)N)NC(=O)[C@H](CCC(N)=O)NC(=O)[C@@H](NC(=O)[C@@H](NC(=O)[C@@H]1CSSC[C@H](NC(=O)CN)C(=O)N[C@@H](CCCNC(=N)N)C(=O)N[C@@H](Cc2ccccc2)C(=O)NCC(=O)N[C@@H]([C@@H](C)O)C(=O)N1)[C@@H](C)O)C(C)C)C(=O)N[C@@H](C)C(=O)N[C@@H](Cc1c[nH]cn1)C(=O)N[C@@H](Cc1ccccc1)C(=O)N[C@@H](CC(C)C)C(=O)N[C@@H](Cc1ccc(O)cc1)C(=O)N[C@@H](CCC(N)=O)C(=O)N[C@@H](Cc1ccccc1)C(=O)N[C@H](C(=O)N[C@@H](CC(=O)O)C(=O)N[C@@H](CCCCN)C(=O)N[C@@H](CC(=O)O)C(=O)N[C@@H](CCCCN)C(=O)N[C@@H](CC(=O)O)C(=O)N[C@@H](CC(N)=O)C(=O)N[C@H](C(=O)N[C@@H](C)C(=O)N1CCC[C@H]1C(=O)N[C@@H](CCCNC(=N)N)C(=O)N[C@H](C(=O)N[C@@H](CC(N)=O)C(=O)N[C@H](C(=O)NCC(=O)N1CCC[C@H]1C(=O)N[C@@H](CCC(N)=O)C(=O)NCC(=O)N[C@@H](Cc1ccc(O)cc1)C(N)=O)C(C)C)[C@@H](C)O)C(C)C)[C@@H](C)O [compound 54] (H-GCRFGTCTVQRLAHFLYQFTDKDKDNVAPRTNVGPQGY-NH2; disulfide 2-7; N-terminus assumed)	0.012 nM
CC(C)C[C@H](NC(=O)[C@H](CCCNC(=N)N)NC(=O)[C@H](CCC(N)=O)NC(=O)[C@@H](NC(=O)[C@@H](NC(=O)[C@@H]1CSSC[C@H](NC(=O)CNC(=O)CC[C@H](NC(=O)CCCCCCCCCCCCCCCCCCC(=O)O)C(=O)O)C(=O)N[C@@H](CCCNC(=N)N)C(=O)N[C@@H](Cc2ccccc2)C(=O)NCC(=O)N[C@@H]([C@@H](C)O)C(=O)N1)[C@@H](C)O)C(C)C)C(=O)N[C@@H](C)C(=O)N[C@@H](Cc1c[nH]cn1)C(=O)N[C@@H](Cc1ccccc1)C(=O)N[C@@H](CC(C)C)C(=O)N[C@@H](Cc1ccc(O)cc1)C(=O)N[C@@H](CCC(N)=O)C(=O)N[C@@H](Cc1ccccc1)C(=O)N[C@H](C(=O)N[C@@H](CC(=O)O)C(=O)N[C@@H](CCCCN)C(=O)N[C@@H](CC(=O)O)C(=O)N[C@@H](CCCCN)C(=O)N[C@@H](CC(=O)O)C(=O)N[C@@H](CC(N)=O)C(=O)N[C@H](C(=O)N[C@@H](C)C(=O)N1CCC[C@H]1C(=O)N[C@@H](CCCNC(=N)N)C(=O)N[C@H](C(=O)N[C@@H](CC(N)=O)C(=O)N[C@H](C(=O)NCC(=O)N1CCC[C@H]1C(=O)N[C@@H](CCC(N)=O)C(=O)NCC(=O)N[C@@H](Cc1ccc(O)cc1)C(N)=O)C(C)C)[C@@H](C)O)C(C)C)[C@@H](C)O [compound 200] ({C20 diacid-γGlu}-GCRFGTCTVQRLAHFLYQFTDKDKDNVAPRTNVGPQGY-NH2; disulfide 2-7)	0.126 nM
CC(C)C[C@H](NC(=O)[C@H](CCCNC(=N)N)NC(=O)[C@H](CCC(N)=O)NC(=O)[C@@H](NC(=O)[C@@H](NC(=O)[C@@H]1CSSC[C@H](NC(=O)CN)C(=O)N[C@@H](CCCNC(=N)N)C(=O)N[C@@H](Cc2ccccc2)C(=O)NCC(=O)N[C@@H]([C@@H](C)O)C(=O)N1)[C@@H](C)O)C(C)C)C(=O)N[C@@H](C)C(=O)N[C@@H](CC(N)=O)C(=O)N[C@@H](Cc1ccccc1)C(=O)N[C@@H](CC(C)C)C(=O)N[C@@H](Cc1ccc(O)cc1)C(=O)N[C@@H](CCC(N)=O)C(=O)N[C@@H](Cc1ccccc1)C(=O)N[C@H](C(=O)N[C@@H](CC(=O)O)C(=O)N[C@@H](CCCCN)C(=O)N[C@@H](CC(=O)O)C(=O)N[C@@H](CCCCN)C(=O)N[C@@H](CC(=O)O)C(=O)N[C@@H](CC(N)=O)C(=O)N[C@H](C(=O)N[C@@H](C)C(=O)N1CCC[C@H]1C(=O)N[C@@H](CCCNC(=N)N)C(=O)N[C@H](C(=O)N[C@@H](CC(N)=O)C(=O)N[C@H](C(=O)NCC(=O)N1CCC[C@H]1C(=O)N[C@@H](CCC(N)=O)C(=O)NCC(=O)N[C@@H](Cc1ccc(O)cc1)C(N)=O)C(C)C)[C@@H](C)O)C(C)C)[C@@H](C)O [compound 16] (H-GCRFGTCTVQRLANFLYQFTDKDKDNVAPRTNVGPQGY-NH2; disulfide 2-7)	0.008 nM
CC[C@H](C)[C@H](NC(=O)[C@H](CCCCN)NC(=O)[C@@H](NC(=O)[C@H](CCCNC(=N)N)NC(=O)[C@@H]1CCCN1C(=O)[C@H](C)NC(=O)[C@@H](NC(=O)[C@H](CC(N)=O)NC(=O)[C@H](CC(=O)O)NC(=O)[C@H](CCCCN)NC(=O)[C@H](CC(=O)O)NC(=O)[C@H](CCCCN)NC(=O)[C@H](CC(=O)O)NC(=O)[C@@H](NC(=O)[C@H](Cc1ccccc1)NC(=O)[C@H](CCC(N)=O)NC(=O)[C@H](Cc1ccc(O)cc1)NC(=O)[C@@H](NC(=O)[C@H](CCC(N)=O)NC(=O)[C@H](Cc1c[nH]cn1)NC(=O)[C@H](C)NC(=O)[C@H](CC(C)C)NC(=O)[C@H](CCCNC(=N)N)NC(=O)[C@H](CCC(N)=O)NC(=O)[C@@H](NC(=O)[C@@H](NC(=O)[C@@H]1CSSC[C@H](NC(=O)CN)C(=O)N[C@@H](CCCNC(=N)N)C(=O)N[C@@H](Cc2ccccc2)C(=O)NCC(=O)N[C@@H]([C@@H](C)O)C(=O)N1)[C@@H](C)O)C(C)C)[C@@H](C)CC)[C@@H](C)O)C(C)C)[C@@H](C)O)C(=O)NCC(=O)N1CCC[C@H]1C(=O)N[C@@H](CCC(N)=O)C(=O)NCC(=O)N1C[C@H](O)C[C@H]1C(N)=O [compound 111] (H-GCRFGTCTVQRLAHQIYQFTDKDKDNVAPRTKIGPQG[Hyp]-NH2; disulfide 2-7; N-terminus assumed)	0.021 nM
